This note sets out measurements from ChEMBL document CHEMBL1201862, “PubChem BioAssay data set” (2004).

Some test systems named below: UACC-62; DMS-273; EKVX; COLO 205; SR; OVCAR-5; LOX IMVI; RPMI-8226; NCI-H226; K562; HOP-62; CCRF-CEM; SK-MEL-2; U-251; HCC 2998; NCI-H23; MOLT-4.
Common to all, as to assay: NCI-60 cell line screen, 48 h

The structures appear in SMILES notation.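 48-hour exposure; five concentrations; linearly interpolated endpoints. GI50 = concentration required for 50% inhibition of growth.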 Activity calls are given as the source filed them. Rule as the data show it: active = GI50 up to about 1.1 µM and inactive = higher. Where only a bound is given, the exact number is not on record here.

Take `O=c1nc(NC2CCCCO2)ccn1CCO` (stereo not drawn): the GI50 with UACC-62, in the test with DMS-273, in the test on EKVX, with COLO 205, with SR and with OVCAR-5 was > 100 µM (inactive) in each case. Further, the GI50 in the test with LOX IMVI, in the test with RPMI-8226, in the test with NCI-H226, in the test with K562, in the test with HOP-62 and in the test with CCRF-CEM was > 100 µM (inactive) in each case. Also, the GI50 with SK-MEL-2 and with U-251 was > 100 µM (inactive) in each case.
`C=C(CN(C)C)C(=O)c1ccccc1C`: the GI50 in the test on HCC 2998 was > 100 µM (inactive); in the test with UACC-62, 28.2 µM (inactive); in the test with DMS-273, 24.5 µM (inactive); in the test with EKVX it was > 100 µM (inactive); in the test with COLO 205, 15.5 µM (inactive); in the test on SR, 14.2 µM (inactive). In addition, the GI50 was > 100 µM (inactive) with OVCAR-5; > 100 µM (inactive) in the test on NCI-H23; > 69.5 µM (inactive) in the test with LOX IMVI; 15.7 µM (inactive) with RPMI-8226; > 100 µM (inactive) with NCI-H226; 15.7 µM (inactive) in the test with K562. In addition, the GI50 with HOP-62 was > 100 µM (inactive); with CCRF-CEM, 7.85 µM (inactive); with MOLT-4, 7.52 µM (inactive); in the test with SK-MEL-2 it was > 100 µM (inactive); in the test with U-251, > 100 µM (inactive).
Take `O=C(c1ccc(Cl)cc1)N(C(=S)N1CCN(c2ccccc2)CC1)C1CCCCC1`: the GI50 was > 100 µM (inactive) in the test on UACC-62; 46.9 µM (inactive) in the test with DMS-273; > 100 µM (inactive) in the test with COLO 205; 67.6 µM (inactive) with SR; > 100 µM (inactive) with OVCAR-5; > 100 µM (inactive) in the test on NCI-H23. For the same compound, the GI50 is 79.4 µM (inactive) with LOX IMVI; 63.5 µM (inactive) in the test with RPMI-8226; 1.03 µM (active) in the test with NCI-H226; 58.2 µM (inactive) in the test with K562; > 100 µM (inactive) in the test with HOP-62; > 100 µM (inactive) in the test on CCRF-CEM. Further, the GI50 in the test with MOLT-4 is 54.2 µM (inactive); in the test with SK-MEL-2, > 100 µM (inactive); in the test with U-251, > 100 µM (inactive).
For the compound `COc1ccc(NC(=O)C(=O)c2c(O)c3ccc(O)cc3oc2=O)c([N+](=O)[O-])c1`, the GI50 with HCC 2998, in the test on UACC-62, in the test with DMS-273, in the test on EKVX, in the test with COLO 205 and in the test with OVCAR-5 was > 100 µM (inactive) in each case. Also, the GI50 with NCI-H23, with LOX IMVI, with NCI-H226, in the test with K562, with CCRF-CEM and with MOLT-4 was > 100 µM (inactive) in each case. In addition, the GI50 with SK-MEL-2 is > 100 µM (inactive).
Consider `O=C(N/C=C1\C(=O)Oc2ccccc2C1=O)Nc1ccccc1`, for which the GI50 with HCC 2998 was 58.1 µM (inactive); in the test with UACC-62, 38.5 µM (inactive); in the test on DMS-273 it was > 100 µM (inactive); in the test with EKVX, > 100 µM (inactive); with COLO 205, > 100 µM (inactive); in the test on SR, 69 µM (inactive). The GI50 in the test on OVCAR-5 was 61.5 µM (inactive); in the test on NCI-H23, 88.7 µM (inactive); with LOX IMVI it was 42.4 µM (inactive); in the test with RPMI-8226, > 100 µM (inactive); in the test on NCI-H226, 23.5 µM (inactive); in the test with K562, > 100 µM (inactive). For the same compound, the GI50 with CCRF-CEM is > 100 µM (inactive); in the test on MOLT-4 it was > 100 µM (inactive); in the test with SK-MEL-2, 18.5 µM (inactive); in the test with U-251 it was 40.2 µM (inactive).
`CCN(CC)c1ccc(/N=N/c2ccc(-c3nc4ccc[n+](C)c4o3)cc2)cc1`: the GI50 in the test with UACC-62 is 9.27 µM (inactive); in the test on DMS-273, 10.5 µM (inactive); in the test with EKVX, 13.6 µM (inactive); in the test with COLO 205 it was 2.29 µM (inactive); with SR, 3.69 µM (inactive); with OVCAR-5 it was 3.54 µM (inactive). For the same compound, the GI50 is 12.8 µM (inactive) in the test with NCI-H23; 4.3 µM (inactive) with LOX IMVI; 2.75 µM (inactive) with RPMI-8226; 11.5 µM (inactive) in the test with NCI-H226; 2.4 µM (inactive) in the test with K562; 16.3 µM (inactive) in the test on HOP-62. Moreover, the GI50 is 3.27 µM (inactive) in the test on CCRF-CEM, 3.66 µM (inactive) with MOLT-4, 12 µM (inactive) in the test with SK-MEL-2 and 4.57 µM (inactive) in the test with U-251.
As to `O=C(Nc1c(Cl)cc([N+](=O)[O-])cc1Cl)C(=O)C(C(=O)c1ccncc1)C1OC(=O)c2ccccc21` (stereo not drawn), the GI50 in the test with HCC 2998, in the test on UACC-62, in the test with DMS-273, in the test with EKVX, in the test with COLO 205 and with SR was > 100 µM (inactive) throughout. Besides, the GI50 in the test on OVCAR-5, in the test on NCI-H23, in the test on LOX IMVI, in the test on RPMI-8226, in the test on NCI-H226 and with K562 was > 100 µM (inactive) throughout. The GI50 in the test on HOP-62, in the test on CCRF-CEM, with MOLT-4 and in the test on U-251 was > 100 µM (inactive) each time.
For the compound `COC(=O)c1ccccc1N(C(=O)c1ccccc1)c1ccccc1C`, the GI50 in the test on HCC 2998 was 60 µM (inactive); in the test on UACC-62 it was 93.8 µM (inactive); in the test on DMS-273, 47.1 µM (inactive); with EKVX, 53.2 µM (inactive); with COLO 205, 26 µM (inactive); in the test with SR, 28.2 µM (inactive). Moreover, the GI50 with OVCAR-5 is > 100 µM (inactive); with NCI-H23, 32.1 µM (inactive); in the test with LOX IMVI, 48.1 µM (inactive); in the test on NCI-H226 it was 74.3 µM (inactive); in the test on K562, 41.1 µM (inactive); in the test with HOP-62 it was > 100 µM (inactive). For the same compound, the GI50 in the test on CCRF-CEM was 27.3 µM (inactive); in the test on MOLT-4, 22.4 µM (inactive); in the test on SK-MEL-2 it was 45 µM (inactive); with U-251 it was 48.2 µM (inactive).
On to `O=[N+]([O-])c1ccc(Cl)c(C2CC(c3cccc4ccccc34)=Nc3ccccc3S2)c1` (stereo not drawn), for which the GI50 with HCC 2998 was 69 µM (inactive); in the test with UACC-62 it was 15.4 µM (inactive); with DMS-273, 20.4 µM (inactive); in the test on EKVX, 70.8 µM (inactive); in the test on COLO 205, 61.2 µM (inactive); in the test on SR, 3.58 µM (inactive). Besides, the GI50 with OVCAR-5 is 42.1 µM (inactive); in the test with NCI-H23 it was 11.4 µM (inactive); in the test on LOX IMVI it was 20 µM (inactive); in the test on RPMI-8226, 2.6 µM (inactive); in the test with NCI-H226 it was 27.6 µM (inactive); with K562, 6.31 µM (inactive). Further, the GI50 was 55.7 µM (inactive) in the test with HOP-62; 3.43 µM (inactive) with CCRF-CEM; 6.75 µM (inactive) with MOLT-4; 21.7 µM (inactive) in the test on SK-MEL-2; 20.5 µM (inactive) in the test with U-251.
Turning to `c1ccc2c3c([nH]c2c1)C1C2CCCCN2C(c2ccncc2)N1CC3` (stereo not drawn), the GI50 in the test with UACC-62 was 36.5 µM (inactive); with DMS-273, 28.6 µM (inactive); in the test with EKVX, 54.3 µM (inactive); with COLO 205, 35 µM (inactive); in the test with SR it was 33.9 µM (inactive); in the test with OVCAR-5, 35.7 µM (inactive). The GI50 with NCI-H23 is 34.4 µM (inactive); in the test with LOX IMVI it was 37.2 µM (inactive); in the test on RPMI-8226, 27.4 µM (inactive); with K562 it was 32.1 µM (inactive); in the test on HOP-62 it was 52.5 µM (inactive); with CCRF-CEM, 33 µM (inactive). The GI50 was 43.3 µM (inactive) in the test on MOLT-4, 39.4 µM (inactive) in the test with SK-MEL-2 and 39.9 µM (inactive) in the test on U-251.
On to `CCOC(=O)Nc1ccc(S(=O)(=O)OC)cc1.CCOC(=O)Nc1ccc(S(=O)(=O)OC)cc1.NNC(=O)c1ccncc1`, for which the GI50 with HCC 2998, with UACC-62, in the test on DMS-273, in the test with EKVX, with COLO 205 and with OVCAR-5 was > 50 µM (inactive) in each case. The GI50 is > 50 µM (inactive) in the test with NCI-H23; > 50 µM (inactive) in the test with LOX IMVI; 14.6 µM (inactive) in the test on RPMI-8226; > 50 µM (inactive) in the test on NCI-H226; 40.2 µM (inactive) in the test on K562; > 50 µM (inactive) in the test on HOP-62. Also, the GI50 in the test on CCRF-CEM was 9.08 µM (inactive); in the test with MOLT-4, > 50 µM (inactive); in the test with SK-MEL-2, > 50 µM (inactive); in the test on U-251, 11.1 µM (inactive).
For `COc1ccccc1/C=C1\CCC(CCN(C)C)(C2=CCCC2)C1=O` (stereo not drawn), the GI50 with HCC 2998 was 18 µM (inactive); in the test with UACC-62 it was 11.2 µM (inactive); in the test with DMS-273 it was 17.5 µM (inactive); in the test on EKVX, 1.81 µM (inactive); in the test with COLO 205 it was 10.2 µM (inactive); in the test on SR, 31.6 µM (inactive). The GI50 with OVCAR-5 is 19.1 µM (inactive); in the test with NCI-H23, 31.6 µM (inactive); with LOX IMVI it was 17.1 µM (inactive); in the test with RPMI-8226 it was 17.8 µM (inactive); in the test with NCI-H226 it was 19.5 µM (inactive); with K562, 11.1 µM (inactive). Also, the GI50 in the test on HOP-62 was 17.3 µM (inactive); with CCRF-CEM it was 16.5 µM (inactive); in the test with MOLT-4 it was 20.7 µM (inactive); in the test with SK-MEL-2 it was 19.5 µM (inactive); with U-251, 16.6 µM (inactive).
